In patent US20030068615A1, “Polypeptides that bind HIV gp120 and related nucleic acids, antibodies, compositions, and methods of use” (priority 1999, published 2003):
Several values for one entry are separate records, joined by “and”; a condition that tells them apart may be missing. Equal entries are not always repeated. Where two headings read alike, the source gives them in different places.

Biological target: HIV-1LAI envelope gp120 (Human immunodeficiency virus type 1 group M subtype B, UniProt P03377)
Type: binding
Details: for Counts per 20′ Average-background: CCR5 18-mer scan, radiolabeled HIV-1LAI gp120; for Relative % of Control: mean of two syntheses and binding experiments ± average deviation, wild-type = 100%; for Binding Results For Window Length (counts bound-background), 9: 9-mer starting at the first residue of the printed sequence; for Binding Results For Window Length (counts bound-background), 12: 12-mer starting at the first residue of the printed sequence
[1] = Panel F, sequential alanine replacements of CD4 polypeptides, duplicate series, empty control 569
[2] = Panel D, 9-mers and 12-mers of CD4, empty control […]
[3] = Panel B, 15-mers and 18-mers of CD4, empty control 575
[4] = Panel E, 9-mers and 12-mers of CD4, empty control 571
[5] = Panel A, 21-mers of CD4, empty control 515 and 617
[6] = CXCR4 18-mer scan, background subtracted, empty control 0
[7] = CXCR4 18-mer scan, empty control 412
[8] = human CD4 21-mer scan, empty control 2075
[9] = STRL33 18-mer scan, background subtracted, first of two count columns
[10] = STRL33 18-mer scan, background subtracted, second of two count columns
[11] = STRL33 amino terminus, background subtracted
[12] = Panel C, 15-mers and 18-mers of CD4, empty control 556

VSVKRVTQDPKLQMGKKLPLH
number of radioactive decays (counts) counted: 1848 counts

EEVQLLVFGLAANSD
COUNTS of radiolabeled gp120 retained [1]: 18863 counts and 19973 counts

THALQGQSLTLTLES
COUNTS of radiolabeled gp120 retained [1]: 7683 counts and 5059 counts

IEDSDTYIC
COUNTS of radiolabeled gp120 retained [2]: 567 counts

LTANSDTHLLQGQSL
COUNTS of radiolabeled gp120 retained [3]: 634 counts

QKASSIVYK
COUNTS of radiolabeled gp120 retained [4]: 494 counts

FFIILLTIDRYLAVVHAV [CCR5 segment 117-]
Counts per 20′ Average-background (background subtracted): 77 counts per 20′

ICEVEDQKE
COUNTS of radiolabeled gp120 retained [2]: 596 counts

MDYQVASPIYDINYYTSE
Relative % of Control (CCR5 (1-18) alanine variants): 124 ± 3%

YKKEGEQVEFSF
COUNTS of radiolabeled gp120 retained [4]: 548 counts

EGEQVEFSFPLAFTVEKLTGS
COUNTS of radiolabeled gp120 retained [5]: 739 counts

LIIKNLKIE
COUNTS of radiolabeled gp120 retained [2]: 515 counts

IVLLLNTFQEFFGLNNCS
Counts per 20′ Average-background (background subtracted): 2134 counts per 20′

SLKILSKGKRGGHSSVST [CXCR4 segment 325-342]
radioactive counts recorded in twenty minutes [6]: 285 counts
radioactive counts recorded in twenty minutes [7]: 697 counts

WDQGNFPLIIKNLKI
COUNTS of radiolabeled gp120 retained [3]: 534 counts

VTQDPKLQMGKKLPLHLTLPQ [human CD4 266-286]
number of radioactive decays (counts) counted [8]: 2075 counts

FPLAFTVEKLTGSGELWWQAE
COUNTS of radiolabeled gp120 retained [5]: 6276 counts

DSDTYICEVEDQ
COUNTS of radiolabeled gp120 retained [2]: 937 counts

MEGISIYASDNYTEEDGS
Relative % of Control (CXCR4 (1-18) alanine variants): 97 ± 10%

MAEHDYHEDYGFSSFNDS [STRL33 segment 1-18]
radioactive counts recorded in twenty minutes [9]: 1178.5 counts
radioactive counts recorded in twenty minutes [10]: 1320.5 counts
Binding Results For Window Length (counts bound-background), 9 [11]: 160 counts
Binding Results For Window Length (counts bound-background), 12 [11]: 625 counts
Binding Results For Window Length (counts bound-background), 15 (STRL33 amino terminus, 15-mer starting at the first residue of the printed sequence, background subtracted): 1239 counts
Binding Results For Window Length (counts bound-background), 18 (STRL33 amino terminus, 18-mer starting at the first residue of the printed sequence, background subtracted): 1386 counts

FKIDIVVLAFQKASSIVYKKE
COUNTS of radiolabeled gp120 retained [5]: 593 counts

GLTANSDTHLLQGQS
COUNTS of radiolabeled gp120 retained [3]: 532 counts

EFSFPLAFTVEKLTG
COUNTS of radiolabeled gp120 retained [12]: 920 counts

HEWVFGQVMCKSLLGIYT [STRL33 segment 93-110]
radioactive counts recorded in twenty minutes [9]: 3391.5 counts
radioactive counts recorded in twenty minutes [10]: 3466.5 counts

EEHQAFLQFSKV
Binding Results For Window Length (counts bound-background), 9 [11]: 6060 counts
Binding Results For Window Length (counts bound-background), 12 [11]: 5598 counts

TGSGELWWQ
COUNTS of radiolabeled gp120 retained [4]: 507 counts

FYPNDLWVVVFQFQHIMV [CXCR4 segment 189-206]
radioactive counts recorded in twenty minutes [6]: 416 counts
radioactive counts recorded in twenty minutes [7]: 828 counts

TANSDTHLLQGQSLT
COUNTS of radiolabeled gp120 retained [3]: 513 counts

EGEQVEFSF
COUNTS of radiolabeled gp120 retained [4]: 735 counts

THLLQAQSLTLTLES
COUNTS of radiolabeled gp120 retained [1]: 8471 counts and 6393 counts

HLTLPQALPQYAGSGNLTLAL [human CD4 281-301]
number of radioactive decays (counts) counted [8]: 2394 counts

PLAFTVEKLTGS
COUNTS of radiolabeled gp120 retained [4]: 528 counts

LQNQKKVEFKID
COUNTS of radiolabeled gp120 retained [4]: 508 counts

GELWWQAERASSSKSWITFDL [human CD4 236-256]
number of radioactive decays (counts) counted [8]: 2730 counts

QAFLQFSKV
Binding Results For Window Length (counts bound-background), 9 [11]: 2600 counts

ERASSVYTRSTGEQEISV [CCR5 segment 333-]
Counts per 20′ Average-background (background subtracted): 84 counts per 20′

FTVEKLTGSGEL
COUNTS of radiolabeled gp120 retained [4]: 530 counts

DDRYICDRFYPNDLWVVV
radioactive counts recorded in twenty minutes [6]: 125 counts
radioactive counts recorded in twenty minutes [7]: 537 counts

PFWAYAGIHEWVFGQVMC
radioactive counts recorded in twenty minutes [9]: 7262.5 counts
radioactive counts recorded in twenty minutes [10]: 7537.5 counts

VFGLTANSDTHL
COUNTS of radiolabeled gp120 retained [2]: 548 counts

AIVHATNSQRPRKLLAEK [CXCR4 segment 137-154]
radioactive counts recorded in twenty minutes [6]: 73 counts
radioactive counts recorded in twenty minutes [7]: 485 counts

DQGNFPLII
COUNTS of radiolabeled gp120 retained [2]: 662 counts

NANFNKIFLPTIYSIIFL [CXCR4 segment 33-50]
radioactive counts recorded in twenty minutes [6]: 173 counts
radioactive counts recorded in twenty minutes [7]: 585 counts

EQVEFSFPLAFTVEKLTGSGE
COUNTS of radiolabeled gp120 retained [5]: 765 counts

VLPTWSTPVQPMALIVLGGVA
number of radioactive decays (counts) counted [8]: 2197 counts

THLLAGQSLTLTLES
COUNTS of radiolabeled gp120 retained [1]: 4578 counts and 2956 counts

NQKKVEFKI
COUNTS of radiolabeled gp120 retained [4]: 597 counts

SIVYKKEGEQVEFSFPLAFTV
COUNTS of radiolabeled gp120 retained [5]: 8165 counts

SKTFSASHNVEATSMFQL [STRL33 segment 325-342]
radioactive counts recorded in twenty minutes [9]: 1524.5 counts
radioactive counts recorded in twenty minutes [10]: 1239.5 counts

QVEFSFPLAFTV
COUNTS of radiolabeled gp120 retained [4]: 1636 counts

VFVCGLVGNSLVLVISIF [STRL33 segment 41-58]
radioactive counts recorded in twenty minutes [9]: 570.5 counts
radioactive counts recorded in twenty minutes [10]: 284.5 counts

DQKEEVQLLVFG
COUNTS of radiolabeled gp120 retained [2]: 1624 counts

TLGFFLPLLTMIVCYSVI
radioactive counts recorded in twenty minutes [9]: 2387.5 counts
radioactive counts recorded in twenty minutes [10]: 479.5 counts

LAFTVEKLTGSGELWWQAERA
COUNTS of radiolabeled gp120 retained [5]: 3577 counts

LKSMTDIYLLNLAISDLF [CCR5 segment 61-78]
Counts per 20′ Average-background (background subtracted): 210 counts per 20′

LQNQKKVEF
COUNTS of radiolabeled gp120 retained [4]: 565 counts

FVGNMLVILILINCKRLK [CCR5 segment 45-62]
Counts per 20′ Average-background (background subtracted): 62 counts per 20′

IPDFIFANVSEADDRYIC
radioactive counts recorded in twenty minutes [6]: 438 counts
radioactive counts recorded in twenty minutes [7]: 850 counts

YSSVLILAFISLDRYLAI
radioactive counts recorded in twenty minutes [6]: 157 counts
radioactive counts recorded in twenty minutes [7]: 569 counts

TCITVDRFIVVVKATKAY
radioactive counts recorded in twenty minutes [9]: 89.5 counts
radioactive counts recorded in twenty minutes [10]: 346.5 counts

YGNVFNLDKLICGYHDEA
radioactive counts recorded in twenty minutes [9]: −41.5 counts
radioactive counts recorded in twenty minutes [10]: −20.5 counts

MYLVVFVCGLVGNSLVLV [STRL33 segment 37-54]
radioactive counts recorded in twenty minutes [9]: 168.5 counts
radioactive counts recorded in twenty minutes [10]: 235.5 counts

SIVYKKEGEQVEFSF
COUNTS of radiolabeled gp120 retained [12]: 651 counts

IVVLAFQKASSIVYK
COUNTS of radiolabeled gp120 retained [12]: 783 counts

AFTVEKLTGSGELWW
COUNTS of radiolabeled gp120 retained [12]: 586 counts

SDTYICEVEDQK
COUNTS of radiolabeled gp120 retained [2]: 846 counts

MVGLILPGIVILSCYCII [CXCR4 segment 205-222]
radioactive counts recorded in twenty minutes [6]: 167 counts
radioactive counts recorded in twenty minutes [7]: 579 counts

KEEVQLLVFGLTANS
COUNTS of radiolabeled gp120 retained [3]: 3485 counts

DQKEEVQLLVFGLTA
COUNTS of radiolabeled gp120 retained [3]: 3905 counts

LLSDSGQVLLESNIKVLPTWS [human CD4 371-391]
number of radioactive decays (counts) counted [8]: 2375 counts

FPLAFTVEKLTGSGE
COUNTS of radiolabeled gp120 retained [12]: 556 counts

AVRLIFTIMTVYFLFWAP [CCR5 segment 233-]
Counts per 20′ Average-background (background subtracted): 62 counts per 20′

KKEGEQVEFSFP
COUNTS of radiolabeled gp120 retained [4]: 598 counts

MEGISIATSDNYTEEMGS
Relative % of Control (CXCR4 (1-18) alanine variants): 7 ± 0.4%

MDYQVSSPIYDANYYTSE
Relative % of Control (CCR5 (1-18) alanine variants): 14 ± 1%

QGNFPLIIKNLKIED
COUNTS of radiolabeled gp120 retained [3]: 509 counts

SDTHLLQGQSLTLTLESP
COUNTS of radiolabeled gp120 retained [3]: 1260 counts

VDRFIVVVKATKAYNQQA
radioactive counts recorded in twenty minutes [9]: 103.5 counts
radioactive counts recorded in twenty minutes [10]: 53.5 counts

VSKREKAVWVLNPEAGMWQCL [human CD4 351-371]
number of radioactive decays (counts) counted [8]: 2034 counts

FPLAFTVEKLTGSGELWW
COUNTS of radiolabeled gp120 retained [12]: 586 counts

FQKASSIVYKKE
COUNTS of radiolabeled gp120 retained [4]: 577 counts

YVGVWIPALLLTIPDFIF
radioactive counts recorded in twenty minutes [6]: 124 counts
radioactive counts recorded in twenty minutes [7]: 536 counts

LGLVLPLLVMVICYSGIL
Counts per 20′ Average-background (background subtracted): 180 counts per 20′

MTWGKVTSLLIWVISLLV
radioactive counts recorded in twenty minutes [9]: −0.5 counts
radioactive counts recorded in twenty minutes [10]: −26.5 counts

KASSIVYKKEGEQVEFSFPLA [human CD4 206-226]
COUNTS of radiolabeled gp120 retained [5]: 30873 counts
number of radioactive decays (counts) counted [8]: 14347 counts

DQGNFPLIIKNLKIEDSD
COUNTS of radiolabeled gp120 retained [3]: 598 counts

THLLQGASLTLTLES
COUNTS of radiolabeled gp120 retained [1]: 1933 counts

IDIVVLAFQKASSIVYKK
COUNTS of radiolabeled gp120 retained [12]: 711 counts

LAFTVEKLTGSGELWWQA
COUNTS of radiolabeled gp120 retained [12]: 866 counts

LLVFGLTANSDT
COUNTS of radiolabeled gp120 retained [2]: 533 counts

GLVILVMGYQKKLRSMTD [CXCR4 segment 57-74]
radioactive counts recorded in twenty minutes [6]: 157 counts
radioactive counts recorded in twenty minutes [7]: 569 counts

LPYLGVSHQWKSSEDNSK
radioactive counts recorded in twenty minutes [9]: 111.5 counts
radioactive counts recorded in twenty minutes [10]: 122.5 counts

GVSNQWKSSEDNSKTFSA [STRL33 segment 313-330]
radioactive counts recorded in twenty minutes [9]: 208.5 counts
radioactive counts recorded in twenty minutes [10]: 306.5 counts

GNFPLIIKNLKIEDSDTY
COUNTS of radiolabeled gp120 retained [3]: 557 counts

YKKEGEQVEFSFPLAFTV
COUNTS of radiolabeled gp120 retained [12]: 4839 counts
